Test results: paper PMC10880924, “Small molecule WDR5 inhibitors down-regulate lncRNA expression” (RSC Medicinal Chemistry, 2024)
Where two headings read alike, the source gives them in different places. Bridge positions count the residues as written; N and C are the ends. Square brackets hold non-standard residues; d marks the D form. Peptide text beside a SMILES is read from it. Dab = NCC[C@H](N)C(=O)O

Tests used:
[1] = molecular target: WDR5^WT (WBM site) (Homo sapiens, UniProt P61964)
[2] = molecular target: WDR5^WT (WIN site) (Homo sapiens, UniProt P61964); details: for inhibition at the WIN site: competitive FP, tracer 1F
[3] = tested on: FOXD3-AS1 expression in MDA-MB-231 cells; details: for FOXD3-AS1 fold change: mean ± SD
[4] = tested on: TGF-β1 expression in MDA-MB-231 cells; details: 3 d, vs blank = 1.000, mean ± SD
[5] = tested on: HOTTIP expression in MDA-MB-231 cells; details: for HOTTIP fold change: mean ± SD
[6] = 1 µM, 3 d, exp 8 (individual bioreplicate), vs blank = 1.000
[7] = 1 µM, 3 d, exp 9 (individual bioreplicate), vs blank = 1.000
[8] = 5 µM, 3 d, exp 7 (individual bioreplicate), vs blank = 1.000
[9] = 5 µM, 3 d, exp 8 (individual bioreplicate), vs blank = 1.000
[10] = 5 µM, 3 d, exp 9 (individual bioreplicate), vs blank = 1.000
[11] = 10 µM, 1 d, Exp. 1 (individual bioreplicate), vs blank 0.1% DMSO = 1.000
[12] = 10 µM, 1 d, Exp. 2 (individual bioreplicate), vs blank 0.1% DMSO = 1.000
[13] = 10 µM, 1 d, Exp. 3 (individual bioreplicate), vs blank 0.1% DMSO = 1.000
[14] = 10 µM, 1 d, Exp. 4 (individual bioreplicate), vs blank 0.1% DMSO = 1.000
[15] = 10 µM, 1 d, Exp. 5 (individual bioreplicate), vs blank 0.1% DMSO = 1.000
[16] = 10 µM, 1 d, Exp. 6 (individual bioreplicate), vs blank 0.1% DMSO = 1.000
[17] = 10 µM, 3 d, Exp. 7 (individual bioreplicate), vs blank 0.1% DMSO = 1.000
[18] = 10 µM, 3 d, Exp. 8 (individual bioreplicate), vs blank 0.1% DMSO = 1.000
[19] = 10 µM, 3 d, Exp. 9 (individual bioreplicate), vs blank 0.1% DMSO = 1.000
[20] = 10 µM, 3 d, Exp. 10 (individual bioreplicate), vs blank 0.1% DMSO = 1.000
[21] = 10 µM, 3 d, Exp. 11 (individual bioreplicate), vs blank 0.1% DMSO = 1.000
[22] = 10 µM, 3 d, Exp. 12 (individual bioreplicate), vs blank 0.1% DMSO = 1.000
[23] = MDA-MB-231, three days, 1/5/10 μM tested

Q: Which “inhibition at the WBM site” value ([1]; competitive FP, tracer 2F) does the source give for `CC(=O)N[C@@H](C)C(=O)N[C@@H](CCCNC(=N)N)C(=O)N[C@H](C(=O)N[C@@H](CCC(=O)O)C(=O)N[C@H](C(=O)N[C@@H](Cc1c[nH]cn1)C(=O)N[C@@H](CC(C)C)C(=O)N[C@@H](CCCNC(=N)N)C(=O)N[C@@H](CCCCN)C(=O)N[C@@H](CO)C(N)=O)C(C)C)[C@@H](C)O` [1NH2] here?
A: does not inhibit the WBM-site

Q: `CC[C@H](C)[C@H](NC(=O)[C@H](CCC(=O)O)NC(=O)[C@H](CCC(=O)O)NC(=O)[C@H](CCC(=O)O)NC(=O)[C@H](CC(=O)O)NC(C)=O)C(=O)N[C@H]1CC(=O)NCC[C@@H](C(=O)N[C@H](C(=O)N[C@@H](CCC(=O)O)C(N)=O)C(C)C)NC(=O)[C@H](C(C)C)NC(=O)[C@H](C(C)C)NC1=O` [2Ac] (Ac-DEEEIDVV[Dab]VE-NH2; lactam 6-9) was tested. Which “inhibition at the WIN site” value [2] did it give?
A: vice versa

Q: `CNC(=O)c1cc(C2(C#N)CCC2)cc(NS(=O)(=O)c2cc(Br)cc(Cl)c2O)c1O` [7k, 3-((5-Bromo-3-chloro-2-hydroxyphenyl)sulfonamido)-5-(1cyanocyclobutyl)-2-hydroxy-N-methylbenzamide] was tested. Which Ki ([1]; read-out: Ki (tracer 2F), WBM site, WDR5^WT 500 nM, 2F 5.0 nM, HEPES pH 7.0, 0.01% Triton-X, 1% DMSO, mean ± SD of four replicates (two biological x two technical), converted from IC50) did it give?
A: 107 ± 20 nM

Q: And the FOXD3-AS1 fold change [3, 6]?
A: 0.984 ± 0.128

Q: And the FOXD3-AS1 fold change [3, 7]?
A: 0.971 ± 0.104

Q: And the FOXD3-AS1 fold change [3, 8]?
A: 0.753 ± 0.078

Q: And the FOXD3-AS1 fold change [3, 9]?
A: 1.178 ± 0.131

Q: And the FOXD3-AS1 fold change [3, 10]?
A: 1.020 ± 0.085

Q: What about the FOXD3-AS1 fold change [3, 11] of the same compound?
A: 0.913 ± 0.098

Q: And the FOXD3-AS1 fold change [3, 12]?
A: 1.000 ± 0.050

Q: And the FOXD3-AS1 fold change [3, 13]?
A: 0.842 ± 0.122

Q: What about the FOXD3-AS1 fold change [3, 14] of the same compound?
A: 0.826 ± 0.055

Q: What about the FOXD3-AS1 fold change [3, 15] of the same compound?
A: 1.053 ± 0.047

Q: And the FOXD3-AS1 fold change [3, 16]?
A: 0.901 ± 0.056

Q: And the FOXD3-AS1 fold change [3, 17]?
A: 0.756 ± 0.076

Q: And the FOXD3-AS1 fold change [3, 18]?
A: 1.075 ± 0.124

Q: And the FOXD3-AS1 fold change [3, 19]?
A: 0.847 ± 0.077

Q: What about the FOXD3-AS1 fold change [3, 20] of the same compound?
A: 0.798 ± 0.040

Q: And the FOXD3-AS1 fold change [3, 21]?
A: 0.944 ± 0.033

Q: And the FOXD3-AS1 fold change [3, 22]?
A: 0.650 ± 0.065

Q: And the “inhibition at the WIN site” value [2]?
A: did not observe any crossover inhibition

Q: And the Ki ([2]; read-out: Ki (tracer 1F), WIN site, WDR5^WT 2 nM, 1F 0.6 nM, HEPES pH 7.0, 0.01% Triton-X, 1% DMSO, mean ± SD of four replicates (two biological x two technical), converted from IC50)?
A: > 40000 nM

Q: What about the TGF-β1 fold change ([4]; 1 µM, exp 7 (individual bioreplicate)) of the same compound?
A: 0.972 ± 0.048

Q: And the TGF-β1 fold change ([4]; 1 µM, exp 8 (individual bioreplicate))?
A: 1.020 ± 0.062

Q: And the TGF-β1 fold change ([4]; 1 µM, exp 9 (individual bioreplicate))?
A: 1.060 ± 0.127

Q: And the TGF-β1 fold change ([4]; 5 µM, exp 7 (individual bioreplicate))?
A: 0.916 ± 0.056

Q: What about the TGF-β1 fold change ([4]; 5 µM, exp 8 (individual bioreplicate)) of the same compound?
A: 1.009 ± 0.079

Q: What about the TGF-β1 fold change ([4]; 5 µM, exp 9 (individual bioreplicate)) of the same compound?
A: 1.003 ± 0.120

Q: And the TGF-β1 fold change ([4]; 10 µM, exp 7 (individual bioreplicate))?
A: 0.972 ± 0.055

Q: What about the TGF-β1 fold change ([4]; 10 µM, exp 8 (individual bioreplicate)) of the same compound?
A: 0.987 ± 0.059

Q: And the TGF-β1 fold change ([4]; 10 µM, exp 9 (individual bioreplicate))?
A: 0.942 ± 0.101

Q: What about the HOTTIP fold change ([5]; 1 µM, 3 d, exp 7 (individual bioreplicate), vs blank = 1.000) of the same compound?
A: 0.923 ± 0.164

Q: What about the HOTTIP fold change [5, 6] of the same compound?
A: 0.821 ± 0.069

Q: What about the HOTTIP fold change [5, 7] of the same compound?
A: 1.189 ± 0.152

Q: And the HOTTIP fold change [5, 8]?
A: 0.643 ± 0.184

Q: And the HOTTIP fold change [5, 9]?
A: 0.877 ± 0.062

Q: What about the HOTTIP fold change [5, 10] of the same compound?
A: 0.915 ± 0.153

Q: What about the HOTTIP fold change [5, 11] of the same compound?
A: 0.963 ± 0.284

Q: And the HOTTIP fold change [5, 12]?
A: 1.521 ± 0.182

Q: What about the HOTTIP fold change [5, 13] of the same compound?
A: 1.129 ± 0.176

Q: What about the HOTTIP fold change [5, 14] of the same compound?
A: 0.970 ± 0.197

Q: What about the HOTTIP fold change [5, 15] of the same compound?
A: 0.988 ± 0.141

Q: And the HOTTIP fold change [5, 16]?
A: 0.618 ± 0.071

Q: And the HOTTIP fold change [5, 17]?
A: 0.464 ± 0.082

Q: What about the HOTTIP fold change [5, 18] of the same compound?
A: 0.570 ± 0.035

Q: And the HOTTIP fold change [5, 19]?
A: 0.733 ± 0.095

Q: And the HOTTIP fold change [5, 20]?
A: 0.646 ± 0.116

Q: What about the HOTTIP fold change [5, 21] of the same compound?
A: 1.031 ± 0.214

Q: What about the HOTTIP fold change [5, 22] of the same compound?
A: 0.548 ± 0.132

Q: And the “concentration required for significant changes of HOTTIP expression” value [5, 23]?
A: 10 µM

Q: `CN1CCN(c2ccc(-c3cccc(CN4CCOCC4)c3)cc2NC(=O)c2c[nH]c(=O)cc2C(F)(F)F)CC1` [OICR-9429] was tested. Which “concentration of maximum effect on FOXD3-AS1 expression” value [3, 23] did it give?
A: 5 µM

Q: And the “concentration of maximum effect on HOTTIP expression” value [5, 23]?
A: 5 µM
